# Reference: patent US9751884B2, “N-aryl unsaturated fused ring tertiary amine compounds, preparation method and anti-tumor applications thereof” (Institute of Pharmacology and Toxicology Academy of …, priority 2012, dated 2017)
# How the values were obtained:
# A549 lung cancer cells = experiment: Experiments of inhibiting growth of cancer cells, SRB method, A549; format: cell-based; settings: Homo sapiens, 48 h with drug
# Method: (§1) The cells were placed in 2.5 cm culture dish and cultured at 37° C. in wet air containing 5% CO2. Cell lines grew adhering to wall. The preparation and dilution of samples as well as process for inoculating them to cellular fluid were performed under aseptic condition. The test samples usually were dissolved in DMSO, stored at −70° C. […] GI50 values about inhibiting growth of cancer cells were determined by SRB (sulfonyl rhodamine B) method. Anticancer drug paclitaxel was used as positive control.
# (§2) A549: lung cancer cells; DU145: prostate cancer cells; KB: nasopharyngeal cancer cells; KB-VIN: drug-resistant nasopharyngeal cancer cells. GI50 value was the concentration that causes 50% cancer cells growth inhibition, showing anticancer activity.
# [1] = system: DU145 prostate cancer cells; experiment: Experiments of inhibiting growth of cancer cells, SRB method, DU145; format: cell-based; settings: Homo sapiens, DU-145, 48 h with drug
# Method: as §1, §2
Compound,GI50 (A549 lung cancer cells) [mg/L],GI50 [1] [mg/L],melting point [°C]
"COc1ccc2c(c1)CCCN2c1nc(Cl)nc2ccccc12 [Compound 1, N^1-[4-(2-chloro)quinazolinyl]-6-methoxy-1,2,3,4-tetrahydroquinoline]",0.0006,0.0005,
"COc1ccc2c(c1)CCCN2c1nc(OC)nc2ccccc12 [Compound 3, N^1-[4-(2-methoxy)quinazolinyl]-6-methoxy-1,2,3,4-tetrahydro-quinoline]",0.0077,0.0069,161 to 163
"Cc1nc(N2CCCc3cc(Br)ccc32)c2ccccc2n1 [Compound 7, N^1-[4-(2-methyl)quinazolinyl]-6-bromo-1,2,3,4-tetrahydroquinoline]",0.075,0.06,129 to 130
"COc1ccc2c(c1)CCN2c1nc(C)nc2ccccc12 [Compound 8, 2-Methyl-4-[N^1-(5-methoxy)indolinyl]quinazoline]",0.0679,0.059,116 to 117
"COc1ccc2c(c1)CCCN(c1nc(C)nc3ccccc13)C2 [Compound 9, N^2-[4-(2-methyl)quinazolinyl]-7-methoxy-2,3,4,5-tetrahydro-1H-benzo[c]azepine]",5.34,4.76,125 to 127
"CCOC1CCN(c2nc(Cl)nc3ccccc23)c2ccc(OC)cc21 (stereo not shown) [Compound 12, N^1-[4-(2-chloro)quinazolinyl]-4-ethoxy-6-methoxy-1,2,3,4-tetrahydroquinoline]",0.065,0.06,70 to 72
"COc1ccc2c(c1)OCCN2c1nc(Cl)nc2ccccc12 [Compound 13, N^4-[4-(2-chloro)quinazolinyl]-7-methoxy-3,4-dihydro-2H-benzo[b][1,4]oxazine]",0.065,0.055,173 to 174
"COc1cc2c(cc1F)N(c1nc(C)nc3ccccc13)CCO2 [Compound 14, N^4-[4-(2-methyl)quinazolinyl]-6-fluoro-7-methoxy-3,4-dihydro-2H-benzo[b][1,4]oxazine]",4.71,7.77,192 to 194
"COC(=O)c1cc(Br)cc(N2CCCc3cc(OC)ccc32)c1 [Compound 26, N^1-[(3-bromo-5-methoxycarbonyl)phenyl]-6-methoxy-1,2,3,4-tetrahydroquinoline]",0.421,0.483,
"COc1ccc2c(c1)CCCN2c1cc(Br)cc(C(=O)O)c1 [Compound 27, N^1-[(3-bromo-5-carboxyl)phenyl]-6-methoxy-1,2,3,4-tetrahydro-quinoline]",,,175 to 177
"CNC(=O)c1cc(Br)cc(N2CCCc3cc(OC)ccc32)c1 [Compound 28, N^1-[(3-bromo-5-methylaminoacyl)phenyl]-6-methoxy-1,2,3,4-tetrahydroquinoline]",0.14,0.209,166 to 167
"COc1ccc2c(c1)CCCN2c1cc(Br)cc(C(=O)NC2CC2)c1 [Compound 29, N^1-[3-bromo-5-(N-cyclopropylaminoacyl)phenyl]-6-methoxy-1,2,3,4-tetrahydroquinoline]",0.067,0.062,
"COc1ccc2c(c1)CCCN2c1cc(Cl)nc(N)n1 [Compound 30, N^1-[4-(2-amino-6-chloro)pyrimidinyl]-6-methoxy-1,2,3,4-tetrahydro-quinoline]",0.077,0.06,179 to 181
"COc1ccc2c(c1)CCCN2c1nc(NC2CCCC2)nc2ccccc12 [Compound 34, 2-cyclopentylamino-4-(6-methoxy-1,2,3,4-tetrahydro-1-quinolyl) quinazoline]",0.501,0.483,
"COc1ccc2c(c1)CCCN2c1cccc2ccccc12 [Compound 37, 4-(6-methoxy-1,2,3,4-tetrahydro-1-quinolyl)naphthalene]",5.15,4.27,

# Now from value to compound:
GI50 (A549 lung cancer cells) [mg/L],GI50 [1] [mg/L],melting point [°C],Compound
0.0056,0.0046,,"COc1ccc2c(c1)CCCN2c1nc(C)nc2ccccc12 [Compound 2, N^1-[4-(2-methyl)quinazolinyl]-6-methoxy-1,2,3,4-tetrahydroquinoline]"
0.0088,0.0075,,"CNc1nc(N2CCCc3cc(OC)ccc32)c2ccccc2n1 [Compound 4, N^1-[4-(2-methylamino)quinazolinyl]-6-methoxy-1,2,3,4-tetrahydro-quinoline]"
0.061,0.051,136 to 138,"Cc1ccc2c(c1)CCCN2c1nc(C)nc2ccccc12 [Compound 6, N^1-[4-(2-methyl)quinazolinyl]-6-methyl-1,2,3,4-tetrahydroquinoline]"
0.065,0.056,102 to 103,"COc1ccc2c(c1)CCCCN2c1nc(Cl)nc2ccccc12 [Compound 10, N^1-[4-(2-chloro)quinazolinyl]-7-methoxy-2,3,4,5-tetrahydro-1H-benzo[b]-azepine]"
0.006,0.006,,"COc1ccc2c(c1)C(O)CCN2c1nc(C)nc2ccccc12 (stereo not shown) [Compound 11, N^1-[4-(2-methyl)quinazolinyl]-4-hydroxyl-6-methoxy-1,2,3,4-tetrahydroquinoline]"
0.0091,0.0106,218 to 220,"COc1ccc2c(c1)C(=O)CCN2c1nc(Cl)nc2ccccc12 [Compound 18, N^1-[4-(2-chloro)quinazolinyl]-6-methoxy-2,3-dihydroquinolin-4(1H)-one]"
0.001,0.0007,,"COc1ccc2c(c1)NC(=O)CN2c1nc(C)nc2ccccc12 [Compound 19, N^4-[4-(2-methyl)quinazolinyl]-7-methoxy-3,4-dihydroquinoxalin-2(1H)-one]"
0.0138,0.0115,,"COc1ccc2c(c1)CCCN2c1cc(C)nc2ccccc12 [Compound 20, 6-methoxy-2′-methyl-3,4-dihydro-2H-1,4′-biquinoline]"
0.0063,0.0072,,"COc1ccc2c(c1)N(C)C(=O)CN2c1nc(C)nc2ccccc12 [Compound 31, N^1-methyl-N^4-[4-(2-methyl)quinazolinyl]-7-methoxy-3,4-dihydro-quinoxalin-2(1H)-one]"
0.056,0.051,,"COc1ccc2c(c1)CCCN2c1nc(N(C)C)nc2ccccc12 [Compound 32, 2-(N-methylmethylamino)-4-(6-methoxy-1,2,3,4-tetrahydro-1-quinolyl)quinazoline]"
0.0057,0.0045,,"COc1ccc2c(c1)CCCN2c1nc(NC2CC2)nc2ccccc12 [Compound 33, 2-cyclopropylamino-4-(6-methoxy-1,2,3,4-tetrahydro-1-quinolyl) quinazoline]"
0.0058,0.0073,,"COc1ccc2c(c1)CCCN2c1nc(NCCCO)nc2ccccc12 [Compound 35, 2-(3-hydroxylpropylamino)-4-(6-methoxy-1,2,3,4-tetrahydro-1-quinolyl)quinazoline]"
0.0065,0.0053,,"CC(=O)O[C@H]1C(=O)[C@@]2(C)[C@H]([C@H](OC(=O)c3ccccc3)[C@]3(O)C[C@H](OC(=O)[C@H](O)[C@@H](NC(=O)c4ccccc4)c4ccccc4)C(C)=C1C3(C)C)[C@]1(OC(C)=O)CO[C@@H]1C[C@@H]2O [Paclitaxel, paclitaxel, reference compound]"
